US20240246942A1, “KINASE INHIBITORS FOR THE TREATMENT OF NEURODEGENERATIVE DISEASES” (priority 2020, published 2024)
Where two headings read alike, the source gives them in different places.

How the values were obtained:
[1] = molecular target: JNK3α1 (Homo sapiens, UniProt P53779); format: biochemical
Description: (§1) A 10-point titration of all compounds was carried out in 3-fold dilutions from 10 μM to 0.5 nM.

[2] = molecular target: JNK1 (Homo sapiens, UniProt P45983); test: JNK1 homogeneous time-resolved fluorescence enzyme inhibition assay; format: biochemical; details: for R: ratio of IC50 values of JNK1 over JNK3: isoform selectivity against JNK1
Description: as §1

[3] = molecular target: JNK2 (Homo sapiens, UniProt P45984); test: JNK2 homogeneous time-resolved fluorescence enzyme inhibition assay; format: biochemical; details: for R: ratio of IC50 values of JNK2 over JNK3: isoform selectivity against JNK2; for IC50: mean of ≥2 experiments, read-out: Biochemical inhibition IC50 JNK2
Description: as §1

[4] = molecular target: p38α (Homo sapiens, UniProt Q16539); test: p38 enzyme inhibition assay; details: mean of ≥2 experiments; read-out: Biochemical inhibition IC50 p38α
[5] = tested on: SHSY5Y cells; test: MTT cytotoxicity assay; format: cell-based; set-up: dose or concentration left out as unconfirmed; details: 48 hrs, average of ≥2 experiments;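 also: compounds tested at 10 µM final concentration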
Description: A day before the assay, cells were plated at 50,000/well in 96 well plates in the culture medium. […] After the incubation, cells were subjected to MTT assay using Vybrant MTT Cell Proliferation kit as directed by the vendor (Life Technologies).

[6] = molecular target: T1, CYP1A2 (Homo sapiens, UniProt P05177); test: P450 cocktail inhibition assay, CYP1A2; format: in vitro ADME; details: at 10 μM
T1 sequence (P05177 1-516): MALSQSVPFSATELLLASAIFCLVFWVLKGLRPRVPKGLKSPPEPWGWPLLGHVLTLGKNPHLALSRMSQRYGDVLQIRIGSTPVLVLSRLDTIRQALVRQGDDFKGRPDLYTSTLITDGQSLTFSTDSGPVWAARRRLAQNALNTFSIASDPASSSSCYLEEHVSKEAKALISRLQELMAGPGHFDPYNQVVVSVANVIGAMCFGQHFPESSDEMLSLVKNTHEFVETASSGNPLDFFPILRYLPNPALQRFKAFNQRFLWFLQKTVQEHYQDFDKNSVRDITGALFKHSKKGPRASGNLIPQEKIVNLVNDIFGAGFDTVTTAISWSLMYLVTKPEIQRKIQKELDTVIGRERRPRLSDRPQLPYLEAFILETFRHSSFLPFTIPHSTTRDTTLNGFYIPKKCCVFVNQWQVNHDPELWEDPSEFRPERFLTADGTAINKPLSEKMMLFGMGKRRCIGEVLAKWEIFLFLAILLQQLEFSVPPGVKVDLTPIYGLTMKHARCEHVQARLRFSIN
Description: (§2) P450s inhibition for four major isoforms are evaluated using a cocktail inhibition assay where the metabolism of specific marker substrate (CYP1A2 phenaceten […] to acetaminophen); CYP2C9, tolbutamide hydroxylation to hydrocytolbutamide; CYP2D6, bufuralol hydroxylation to […]; and CYP3A4, midazolam hydroxylation to 1′-Hydroxymidazolam) in the presence or absence of 10 TM probe compound is evaluated. The concentration of each marker substrate is approximately its Km. […] Specific inhibitors for each isoform are included in each run to validate the system.

[7] = molecular target: CYP2C9 (Homo sapiens, UniProt P11712); test: P450 cocktail inhibition assay, CYP2C9; format: in vitro ADME; details: at 10 μM
Description: as §2

[8] = molecular target: CYP2D6 (Homo sapiens, UniProt P10635); test: P450 cocktail inhibition assay, CYP2D6; format: in vitro ADME; details: at 10 μM
Description: as §2

[9] = molecular target: CYP3A4 (Homo sapiens, UniProt P08684); test: P450 cocktail inhibition assay, CYP3A4; format: in vitro ADME; details: at 10 μM
Description: as §2

[10] = Microsomal stability, human; format: in vitro ADME; details: human microsomes
[11] = Microsomal stability, mouse; format: in vitro ADME; details: mouse microsomes
[12] = mean of ≥2 experiments, read-out: Biochemical inhibition IC50 JNK3
[13] = mean of ≥2 experiments, read-out: Biochemical inhibition IC50 JNK1

Sequence of p38α (Q16539 whole entry): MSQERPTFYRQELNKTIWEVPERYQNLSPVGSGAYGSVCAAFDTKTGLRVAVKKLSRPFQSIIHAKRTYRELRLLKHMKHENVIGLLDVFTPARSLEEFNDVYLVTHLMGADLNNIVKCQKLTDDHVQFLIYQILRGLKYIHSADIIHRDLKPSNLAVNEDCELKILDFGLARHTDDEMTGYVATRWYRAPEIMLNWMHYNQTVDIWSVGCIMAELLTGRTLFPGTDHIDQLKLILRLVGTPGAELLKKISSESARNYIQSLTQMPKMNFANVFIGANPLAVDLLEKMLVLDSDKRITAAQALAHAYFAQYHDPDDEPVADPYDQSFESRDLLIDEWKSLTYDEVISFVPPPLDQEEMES
Sequence of JNK3α1 (P53779 1-422 isoform P53779-2): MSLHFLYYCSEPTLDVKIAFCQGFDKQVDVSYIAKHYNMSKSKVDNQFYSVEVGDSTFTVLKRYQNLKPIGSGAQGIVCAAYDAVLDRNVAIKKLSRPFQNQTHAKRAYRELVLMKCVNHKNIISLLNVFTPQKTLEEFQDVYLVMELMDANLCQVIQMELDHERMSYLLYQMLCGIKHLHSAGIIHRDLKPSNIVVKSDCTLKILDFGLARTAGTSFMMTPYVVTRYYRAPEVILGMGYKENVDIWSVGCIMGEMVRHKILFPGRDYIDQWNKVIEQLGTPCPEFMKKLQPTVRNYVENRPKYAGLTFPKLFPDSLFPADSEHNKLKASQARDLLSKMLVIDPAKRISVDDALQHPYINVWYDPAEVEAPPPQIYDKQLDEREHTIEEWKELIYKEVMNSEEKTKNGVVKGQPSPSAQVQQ
Sequence of JNK1 (P45983 whole entry, canonical isoform): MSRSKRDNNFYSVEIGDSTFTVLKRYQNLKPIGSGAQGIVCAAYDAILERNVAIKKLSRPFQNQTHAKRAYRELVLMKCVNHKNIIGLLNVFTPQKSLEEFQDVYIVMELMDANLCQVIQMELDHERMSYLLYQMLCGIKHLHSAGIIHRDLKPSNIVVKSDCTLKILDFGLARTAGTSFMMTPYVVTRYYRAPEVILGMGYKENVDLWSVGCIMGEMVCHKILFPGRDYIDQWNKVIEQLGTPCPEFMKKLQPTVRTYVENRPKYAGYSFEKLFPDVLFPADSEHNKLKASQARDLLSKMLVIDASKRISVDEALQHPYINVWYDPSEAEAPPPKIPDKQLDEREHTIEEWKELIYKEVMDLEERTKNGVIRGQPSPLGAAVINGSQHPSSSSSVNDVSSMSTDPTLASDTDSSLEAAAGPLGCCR
Sequence of JNK2 (P45984 whole entry, canonical isoform): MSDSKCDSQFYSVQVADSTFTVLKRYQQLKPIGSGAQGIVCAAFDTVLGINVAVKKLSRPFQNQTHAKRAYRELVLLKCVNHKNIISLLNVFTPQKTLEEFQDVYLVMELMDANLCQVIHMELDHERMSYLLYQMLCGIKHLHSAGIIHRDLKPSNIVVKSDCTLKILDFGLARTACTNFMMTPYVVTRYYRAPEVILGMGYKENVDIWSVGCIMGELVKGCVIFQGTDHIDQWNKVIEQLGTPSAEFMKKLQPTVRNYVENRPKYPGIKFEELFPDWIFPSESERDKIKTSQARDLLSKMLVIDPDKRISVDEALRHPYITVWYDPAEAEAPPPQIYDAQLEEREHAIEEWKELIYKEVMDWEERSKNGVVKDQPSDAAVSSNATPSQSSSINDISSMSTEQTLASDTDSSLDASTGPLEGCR
Sequence of CYP3A4 (P08684 whole entry): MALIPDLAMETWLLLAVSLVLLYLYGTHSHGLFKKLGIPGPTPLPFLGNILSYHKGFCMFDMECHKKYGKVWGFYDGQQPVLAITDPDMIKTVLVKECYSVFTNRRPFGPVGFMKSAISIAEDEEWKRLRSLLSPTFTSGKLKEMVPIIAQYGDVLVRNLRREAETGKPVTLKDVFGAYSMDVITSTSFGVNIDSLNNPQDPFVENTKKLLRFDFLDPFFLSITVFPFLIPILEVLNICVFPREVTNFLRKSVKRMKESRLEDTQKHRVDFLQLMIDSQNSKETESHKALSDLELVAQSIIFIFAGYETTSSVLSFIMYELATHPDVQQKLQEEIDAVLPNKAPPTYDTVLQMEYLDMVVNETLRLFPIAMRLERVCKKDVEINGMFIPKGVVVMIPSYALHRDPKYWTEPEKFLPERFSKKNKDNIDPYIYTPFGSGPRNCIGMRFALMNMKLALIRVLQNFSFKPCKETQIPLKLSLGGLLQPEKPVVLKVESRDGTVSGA
Sequence of CYP2C9 (P11712 whole entry): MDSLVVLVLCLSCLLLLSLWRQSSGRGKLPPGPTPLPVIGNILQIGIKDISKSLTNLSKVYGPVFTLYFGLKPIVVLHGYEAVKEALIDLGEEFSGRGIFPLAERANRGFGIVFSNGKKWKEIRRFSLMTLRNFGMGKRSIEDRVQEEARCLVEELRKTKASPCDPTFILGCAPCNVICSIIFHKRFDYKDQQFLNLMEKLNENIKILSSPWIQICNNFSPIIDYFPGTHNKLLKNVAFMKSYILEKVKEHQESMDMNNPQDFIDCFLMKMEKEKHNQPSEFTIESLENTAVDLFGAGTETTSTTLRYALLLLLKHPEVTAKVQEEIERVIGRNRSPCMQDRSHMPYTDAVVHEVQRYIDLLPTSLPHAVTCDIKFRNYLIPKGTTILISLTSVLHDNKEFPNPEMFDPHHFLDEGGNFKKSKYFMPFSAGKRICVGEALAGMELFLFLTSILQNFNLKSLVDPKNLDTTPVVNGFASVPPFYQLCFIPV
Sequence of CYP2D6 (P10635 whole entry): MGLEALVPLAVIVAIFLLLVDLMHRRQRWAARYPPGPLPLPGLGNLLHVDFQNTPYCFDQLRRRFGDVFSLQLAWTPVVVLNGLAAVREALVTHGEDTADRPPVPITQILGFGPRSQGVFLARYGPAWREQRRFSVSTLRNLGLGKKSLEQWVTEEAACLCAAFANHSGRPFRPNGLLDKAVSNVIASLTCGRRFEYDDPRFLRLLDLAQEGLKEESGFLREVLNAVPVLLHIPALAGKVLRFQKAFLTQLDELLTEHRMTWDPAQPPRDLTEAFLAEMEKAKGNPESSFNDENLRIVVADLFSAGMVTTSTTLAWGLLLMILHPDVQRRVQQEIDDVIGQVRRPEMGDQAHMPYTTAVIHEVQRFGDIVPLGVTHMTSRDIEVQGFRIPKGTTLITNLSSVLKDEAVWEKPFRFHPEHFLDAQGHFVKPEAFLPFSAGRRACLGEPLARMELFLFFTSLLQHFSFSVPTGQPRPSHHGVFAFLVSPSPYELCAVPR

Compound	IC50 [1, 12]	R: ratio of IC50 values of JNK1 over JNK3 [2]	IC50 [2, 13]	IC50 [4]	also measured
O=C(Nc1cnn(-c2csc(C(=O)NC3CC3)c2)c1)Nc1ccccc1Cl [Compound 8, 4-(4-(3-(2-chlorophenyl)ureido)-1H-pyrazol-1-yl)-N-cyclopropylthiophene-2-carboxamide]	80 nM	93	7400 nM	> 20000 nM	isoform selectivity against JNK2 vs JNK3 [3]: around 40 folds; R: ratio of IC50 values of JNK2 over JNK3 [3]: 40; IC50 [3]: 3200 nM; MTT cell viability [5]: 103%; CYP-450 % inh. 1A2 [6]: −2%; CYP-450 % inh. 2C9 [7]: −4%; CYP-450 % inh. 2D6 [8]: −29%; CYP-450 % inh. 3A4 [9]: −45%; Mic. stability t1/2 Human [10]: 49 min; Mic. stability t1/2 Mouse [11]: 35 min
O=C(Nc1cnn(-c2csc(C(=O)N[C@@H]3CCNC3)c2)c1)Nc1ccccc1Cl [Compound 9, (R)-4-(4-(3-(2-chlorophenyl)ureido)-1H-pyrazol-1-yl)-N-(pyrrolidin-3-yl)thiophene-2-carboxamide]	132 nM	–	5900 nM	–	–
[2H]C([2H])([2H])N1CC[C@@H](NC(=O)c2cc(-n3cc(NC(=O)Nc4ccccc4Cl)cn3)cs2)C1 [Compound 11, (R)-4-(4-(3-(2-chlorophenyl)ureido)-1H-pyrazol-1-yl)-N-(1-(methyl-d3)pyrrolidin-3-yl)thiophene-2-carboxamide]	83 nM	61	5100 nM	–	–
O=C(Nc1cnn(-c2ccc(C(=O)NC3CNC3)s2)c1)Nc1ccccc1Cl [Compound 4, N-(azetidin-3-yl)-5-(4-(3-(2-chlorophenyl)ureido)-1H-pyrazol-1-yl)thiophene-2-carboxamide]	800 nM	–	–	–	–
CC1(NC(=O)c2cc(-n3cc(NC(=O)Nc4ccccc4Cl)cn3)cs2)COC1 [Compound 18, 4-(4-(3-(2-chlorophenyl)ureido)-1H-pyrazol-1-yl)-N-(3-methyloxetan-3-yl)thiophene-2-carboxamide]	45 nM	73	3300 nM	> 20000 nM	–
CN1CC[C@H](NC(=O)c2cc(-n3cc(NC(=O)Nc4ccccc4Cl)cn3)cs2)C1 [Compound 12, (S)-4-(4-(3-(2-chlorophenyl)ureido)-1H-pyrazol-1-yl)-N-(1-methylpyrrolidin-3-yl)thiophene-2-carboxamide]	39 nM	56	2200 nM	–	isoform selectivity against JNK2 vs JNK3 [3]: around 40 folds; R: ratio of IC50 values of JNK2 over JNK3 [3]: 39; IC50 [3]: 1510 nM; MTT cell viability [5]: 94%; CYP-450 % inh. 1A2 [6]: −1%; CYP-450 % inh. 2C9 [7]: −9%; CYP-450 % inh. 2D6 [8]: 20%; CYP-450 % inh. 3A4 [9]: −18%; Mic. stability t1/2 Human [10]: 54 min; Mic. stability t1/2 Mouse [11]: 20 min
O=C(Nc1cnn(-c2nc(C(=O)NC3CNC3)cs2)c1)Nc1ccccc1Cl [Compound 3, N-(azetidin-3-yl)-2-(4-(3-(2-chlorophenyl)ureido)-1H-pyrazol-1-yl)thiazole-4-carboxamide]	–	–	–	–	inhibition of JNK3 ([1]; in words, FIG. 3): no inhibition; inhibition of JNK1 ([2]; in words, FIG. 3): no inhibition
CN1CC[C@H](CNC(=O)c2cc(-n3cc(NC(=O)Nc4ccccc4Cl)cn3)cs2)C1 [Compound 21, (R)-4-(4-(3-(2-chlorophenyl)ureido)-1H-pyrazol-1-yl)-N-((1-methylpyrrolidin-3-yl)methyl)thiophene-2-carboxamide]	222 nM	46	10300 nM	–	–
O=C(Nc1cnn(-c2csc(C(=O)N[C@@H]3CCOC3)c2)c1)Nc1ccccc1Cl [Compound 16, (R)-4-(4-(3-(2-chlorophenyl)ureido)-1H-pyrazol-1-yl)-N-(tetrahydrofuran-3-yl)thiophene-2-carboxamide]	–	188	1500 nM	–	IC50 ([1]; read-out: JNK3 inhibitory activity IC50): 8 nM; isoform selectivity against JNK2 vs JNK3 [3]: > 250 folds; R: ratio of IC50 values of JNK2 over JNK3 [3]: 253; IC50 [3]: 2020 nM; MTT cell viability [5]: 112%; CYP-450 % inh. 1A2 [6]: 17%; CYP-450 % inh. 2C9 [7]: 38%; CYP-450 % inh. 2D6 [8]: 1%; CYP-450 % inh. 3A4 [9]: −20%; Mic. stability t1/2 Human [10]: 33 min; Mic. stability t1/2 Mouse [11]: 13 min
CNC(=O)c1cc(-n2cc(NC(=O)Nc3ccccc3Cl)cn2)cs1 [Compound 7, 4-(4-(3-(2-chlorophenyl)ureido)-1H-pyrazol-1-yl)-N-methylthiophene-2-carboxamide]	–	–	–	> 20000 nM	IC50 [2]: > 20000 nM
O=C(Nc1cnn(-c2csc(C(=O)NC[C@H]3CCOC3)c2)c1)Nc1ccccc1Cl [Compound 22, (R)-4-(4-(3-(2-chlorophenyl)ureido)-1H-pyrazol-1-yl)-N-((tetrahydrofuran-3-yl)methyl)thiophene-2-carboxamide]	71 nM	31	2200 nM	–	–
O=C(Nc1cnn(-c2csc(C(=O)NCC3CCNCC3)c2)c1)Nc1ccccc1Cl [Compound 20, 4-(4-(3-(2-chlorophenyl)ureido)-1H-pyrazol-1-yl)-N-(piperidin-4-ylmethyl)thiophene-2-carboxamide]	–	–	6600 nM	> 20000 nM	–
CN1CCC[C@H]1CNC(=O)c1cc(-n2cc(NC(=O)Nc3ccccc3Cl)cn2)cs1 [Compound 23, (S)-4-(4-(3-(2-chlorophenyl)ureido)-1H-pyrazol-1-yl)-N-((1-methylpyrrolidin-2-yl)methyl)thiophene-2-carboxamide]	85 nM	107	9100 nM	–	–
O=C(Nc1cnn(-c2cc(C(=O)NC3CNC3)cs2)c1)Nc1ccccc1Cl [Compound 5, N-(azetidin-3-yl)-5-(4-(3-(2-chlorophenyl)ureido)-1H-pyrazol-1-yl)thiophene-3-carboxamide]	200 nM	–	–	–	–
CN1CC[C@@H](NC(=O)c2cc(-n3cc(NC(=O)Nc4ccccc4Cl)cn3)cs2)C1 [Compound 10, (R)-4-(4-(3-(2-chlorophenyl)ureido)-1H-pyrazol-1-yl)-N-(1-methylpyrrolidin-3-yl)thiophene-2-carboxamide]	85 nM	60	5100 nM	–	–
O=C(Nc1cnn(-c2csc(C(=O)NC3CNC3)c2)c1)Nc1ccccc1Cl [Compound 6, N-(azetidin-3-yl)-4-(4-(3-(2-chlorophenyl)ureido)-1H-pyrazol-1-yl)thiophene-2-carboxamide]	50 nM	72	3600 nM	> 20000 nM	isoform selectivity against JNK1 ([2]; JNK3 over JNK1, text): 72 fold
CC(C)N1CC[C@H](NC(=O)c2cc(-n3cc(NC(=O)Nc4ccccc4Cl)cn3)cs2)C1 [Compound 13, (S)-4-(4-(3-(2-chlorophenyl)ureido)-1H-pyrazol-1-yl)-N-(1-isopropylpyrrolidin-3-yl)thiophene-2-carboxamide]	12 nM	60	720 nM	–	–
CN1CCC(CNC(=O)c2cc(-n3cc(NC(=O)Nc4ccccc4Cl)cn3)cs2)CC1 [Compound 19, 4-(4-(3-(2-chlorophenyl)ureido)-1H-pyrazol-1-yl)-N-((1-methylpiperidin-4-yl)methyl)thiophene-2-carboxamide]	142 nM	41	5800 nM	> 20000 nM	–
